# “Also recorded” adds a separate entry of the source.
# What was measured:
# [1] = test system: tonic extensive convulsion (maximal electroshock-induced seizures); assay: Activity against maximal electroshock-induced seizures in mice; format: in vivo, mouse (Slc:ddy male mice); conditions: oral
# From the text: In each group six Slc: ddy male mice weighing 26 to 31 g (5 weeks) were employed. Sixty minutes after oral administration of a test compound, corneal electrodes which were wet by physiological saline were contacted with both eyes of a mouse. Then, appearance of tonic extensive convulsion (TE) caused by electrifying under a stimulation condition of 50 mA, 1000 V and 0.2 sec by means of the apparatus of Woodburg & Davenport (made by Kyoto Keisokuki) was judged as indication.
# Each of diphenylhydantoin, the compounds Nos. 2, 4, 5, 6, 7, 50, 51 and 52 of the present invention (refer Table 1, hereinafter the same) and nimodipine was suspended in a 0.5% solution of methyl cellulose to subject the test. Flunarizine was suspended in a 5% solution of gum arabic to subject the test.
# [2] = test system: immobility time of forced swimming test; assay: Activity against immobility time of forced swimming test in mice; format: in vivo, mouse (Slc:ICR male mice); conditions: oral
# Description: In each group 6 Slc:ICR male mice weighing 25 to 32 g (5 weeks) were bred at the room temperature of 22° to 24° C. under an environment of 60% humidity for 1 week, and then the bred mice were subjected to the following test. The test was carried out by monitering action to voluntarily escape with TV camera when a mouse was put into a cylinder of which inner diameter was 11 cm wherein 17 cm of water being the temperature 25° C. as added. As indication immobility time for 6 minutes was measured. In the test mice were employed which were compulsorily swun for 6 minutes in once per day for continuous 3 day. The investigation for immobility time was carried out by measuring immobility time for 6 minutes 1 hour after oral administration of a test compound. Each of test compound was suspended in a 0.5% solution of methyl cellulose used as a control group. Significant difference is shown with the significance level (* : p<0.05) obtained by comparing data of control group by LSD method.
# [3] = test system: decapitation induced hypoxia; assay: Activity against decapitation induced hypoxia in mice; format: in vivo, mouse (Slc:ddy male mice); conditions: Mus musculus, 1 h, oral, 60 min before decapitation, duration of gasping vs control, read-out: Inhibition rate
# Description: In each group five Slc:ddy male mice weighing 20 to 22 g (4 weeks) were employed. Sixty minutes after oral administration of a test compound, mice were decapitated with a guillotine. After the decapitation, duration of gasping of head was measured with a timer (CT-916 Type, made by HATTORI SEIKO CO., LTD.) gearing into the guillotine.
# Each of test compound was suspended in a 0.5% solution of methyl cellulose and administered. Inhibition rate was calculated by comparing with a 0.5% aqueous solution of methyl cellulose as control. That is, the inhibition rate was calculated by the following formula. [formula]
# [4] = administered over an extended period of time; cited from earlier work
compound,measurement,setting,value
"Fc1ccc(C(c2ccc(F)cc2)N2CCN(C/C=C/c3ccccc3)CC2)cc1 [Flunarizine, reference compound]",inhibitory activity against tonic extensive convulsion (share of cases),[1]; 100 mg/kg,a third
same,inhibitory activity against tonic extensive convulsion (share of cases),[1]; 200 mg/kg,five sixths
same,effect on immobility time of forced swimming test (in words),[2],ineffective; also recorded: no effect
same,inhibition in vivo at 10 mg/kg,[3]; 10 mg/kg,12.1%
same,inhibition in vivo at 30 mg/kg,[3]; 30 mg/kg,24.3%
same,side effects caused by central nervous system inhibitory activity,[4],Parkinson symptom and depression symptom

# Reference: US5158963A, “1-4-dihydropyridine derivative, process for preparing the same and pharmaceutical composition containing the same” (Kaken Pharmaceutical Co., Ltd., priority 1989, dated 1992)
